In PubChem BioAssay AID256 (DTP/NCI, 2004):
Inconclusive results and toxic doses are left out. Rule for the calls: active = survival T/C of 150% or more; inactive = T/C below 125% in these data.

System: CD2F1 mice, L1210 leukemia ip, survival T/C
Experiment: NCI In Vivo Anticancer Drug Screen. Data for tumor model L1210 Leukemia (intraperitoneal) in CD2F1 (CDF1) mice
Conditions: higher = longer survival
Method in brief: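 Transplantable tumor in mice; compound-treated vs vehicle-treated groups. Read-out = treated/control ratio of the measured endpoint.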

[1] = endpoint: mean survival time, dose: 100.0 mg/kg/injection, schedule: Q04DX003 (ip), vehicle: acetone
[2] = endpoint: mean survival time, dose: 200.0 mg/kg/injection, schedule: Q04DX003 (ip), vehicle: acetone
[3] = endpoint: mean survival time, dose: 400.0 mg/kg/injection, schedule: Q04DX003 (ip), vehicle: acetone
[4] = endpoint: mean survival time, dose: 50.0 mg/kg/injection, schedule: Q01DX009 (ip), vehicle: saline with Tween-80
[5] = endpoint: mean survival time, dose: 100.0 mg/kg/injection, schedule: Q01DX009 (ip), vehicle: saline with Tween-80
[6] = endpoint: mean survival time, dose: 100.0 mg/kg/injection, schedule: Q04DX003 (ip), vehicle: saline with Tween-80
[7] = endpoint: mean survival time, dose: 200.0 mg/kg/injection, schedule: Q04DX003 (ip), vehicle: saline with Tween-80
[8] = endpoint: mean survival time, dose: 50.0 mg/kg/injection, schedule: Q01DX009 (ip), vehicle: saline
[9] = endpoint: mean survival time, dose: 100.0 mg/kg/injection, schedule: Q01DX009 (ip), vehicle: saline
[10] = endpoint: mean survival time, dose: 25.0 mg/kg/injection, schedule: Q01DX001 (ip), vehicle: saline with Tween-80
[11] = endpoint: mean survival time, dose: 50.0 mg/kg/injection, schedule: Q01DX001 (ip), vehicle: saline with Tween-80
[12] = endpoint: mean survival time, dose: 200.0 mg/kg/injection, schedule: Q01DX009 (ip), vehicle: saline with Tween-80
[13] = endpoint: mean survival time, dose: 400.0 mg/kg/injection, schedule: Q04DX003 (ip), vehicle: saline with Tween-80
[14] = endpoint: mean survival time, dose: 100.0 mg/kg/injection, schedule: Q01DX001 (ip), vehicle: saline
[15] = endpoint: mean survival time, dose: 200.0 mg/kg/injection, schedule: Q01DX001 (ip), vehicle: saline
[16] = endpoint: mean survival time, dose: 400.0 mg/kg/injection, schedule: Q01DX001 (ip), vehicle: saline
[17] = endpoint: mean survival time, dose: 12.5 mg/kg/injection, schedule: Q01DX009 (ip), vehicle: saline with Tween-80
[18] = endpoint: mean survival time, dose: 25.0 mg/kg/injection, schedule: Q01DX009 (ip), vehicle: saline with Tween-80

Measured: T/C

COCC1OC(COC)C(OC)C1OC (centres undefined)
inactive: [1] 102 % of control | [2] 102 % of control | [3] 94 % of control

O=C(CC(O)(C(F)(F)F)C(F)(F)F)c1ccco1
inactive: [4] 116 % of control | [5] 110 % of control | [6] 105 % of control | [7] 100 % of control

COCCCN1CCN(c2ccccc2OC)CC1
inactive: [8] 93 % of control | [9] 88 % of control | endpoint: mean survival time, dose: 100.0 mg/kg/injection, schedule: Q04DX003 (ip), vehicle: saline 98 % of control | endpoint: mean survival time, dose: 200.0 mg/kg/injection, schedule: Q04DX003 (ip), vehicle: saline 104 % of control

O=c1[nH][nH]c(=O)c2c1oc1c(=O)[nH][nH]c(=O)c12
inactive: [10] 104 % of control | [11] 92 % of control

CC1C=COCCO1 (centres undefined) (tested in a mixture with another compound)
inactive: [1] 97 % of control | [2] 98 % of control | [3] 98 % of control

c1ccc(C(=NCCN=C(c2ccccc2)c2ccccc2)c2ccccc2)cc1
inactive: [5] 97 % of control | [6] 97 % of control | [12] 92 % of control | [7] 97 % of control | endpoint: mean survival time, dose: 400.0 mg/kg/injection, schedule: Q01DX009 (ip), vehicle: saline with Tween-80 95 % of control | [13] 97 % of control

C=Cc1ccc(C(N)=O)cc1
inactive: [6] 101 % of control | [7] 98 % of control | [13] 96 % of control

CC(C)CCC(=O)c1ccoc1
inactive: endpoint: median survival time, dose: 0.12 mg/kg/injection, schedule: Q03HX015 (ip), vehicle: saline with Tween-80 100 % of control | endpoint: median survival time, dose: 0.25 mg/kg/injection, schedule: Q03HX015 (ip), vehicle: saline with Tween-80 103 % of control | endpoint: median survival time, dose: 0.5 mg/kg/injection, schedule: Q03HX015 (ip), vehicle: saline with Tween-80 101 % of control | endpoint: median survival time, dose: 1.0 mg/kg/injection, schedule: Q03HX015 (ip), vehicle: saline with Tween-80 100 % of control | endpoint: median survival time, dose: 2.0 mg/kg/injection, schedule: Q03HX015 (ip), vehicle: saline with Tween-80 96 % of control

COc1ccc(P(=S)(S)c2ccc(OC)cc2)cc1
inactive: endpoint: mean survival time, dose: 80.5 mg/kg/injection, schedule: Q01DX009 (ip), vehicle: saline with Tween-80 95 % of control | endpoint: mean survival time, dose: 161.0 mg/kg/injection, schedule: Q01DX009 (ip), vehicle: saline with Tween-80 93 % of control | endpoint: mean survival time, dose: 322.0 mg/kg/injection, schedule: Q01DX009 (ip), vehicle: saline with Tween-80 93 % of control

CCOC(=O)C1CC(O)CN1 (centres undefined)
inactive: endpoint: mean survival time, dose: 100.0 mg/kg/injection, schedule: Q01DX009 (ip), vehicle: saline sonified 98 % of control | endpoint: mean survival time, dose: 200.0 mg/kg/injection, schedule: Q01DX009 (ip), vehicle: saline sonified 95 % of control | endpoint: mean survival time, dose: 400.0 mg/kg/injection, schedule: Q01DX009 (ip), vehicle: saline sonified 92 % of control

CC(=N\O)/C(C)=N/O.CC(=N\O)/C(C)=N/O.CCCC1CC[N-]CC1.CCCC1CC[N-]CC1.CCCC1CC[N-]CC1.CCCC1CC[N-]CC1.[Cl-].[Cl-].[Cl][Rh][Cl].[Rh+3]
inactive: endpoint: mean survival time, dose: 6.25 mg/kg/injection, schedule: Q01DX009 (ip), vehicle: water 97 % of control | endpoint: mean survival time, dose: 6.25 mg/kg/injection, schedule: Q04DX003 (ip), vehicle: water 86 % of control | endpoint: mean survival time, dose: 12.5 mg/kg/injection, schedule: Q04DX003 (ip), vehicle: water 94 % of control | endpoint: mean survival time, dose: 25.0 mg/kg/injection, schedule: Q01DX009 (ip), vehicle: water 88 % of control | endpoint: mean survival time, dose: 25.0 mg/kg/injection, schedule: Q04DX003 (ip), vehicle: water 86 % of control

O=S(=O)(O)c1ccc(O)c(S(=O)(=O)O)c1
inactive: [14] 97 % of control | [15] 101 % of control | [16] 97 % of control

CC12CC1(C)C(=O)OC2=O (centres undefined)
inactive: [4] 96 % of control | [5] 95 % of control | [12] 96 % of control

CN(C)CCCN=Cc1ccc(O)cc1O.CN(C)CCCN=Cc1ccc(O)cc1O.[Ni+2]
inactive: [17] 94 % of control | [18] 93 % of control | [4] 94 % of control

O=C(O)C1CCC[N-]C1.O=C(O)C1CCC[N-]C1.[Cl][Pt+2][Cl] (centres undefined)
inactive: endpoint: mean survival time, dose: 5.0 mg/kg/injection, schedule: Q04DX003 (ip), vehicle: saline with Tween-80 95 % of control | endpoint: mean survival time, dose: 10.0 mg/kg/injection, schedule: Q04DX003 (ip), vehicle: saline with Tween-80 112 % of control | endpoint: mean survival time, dose: 20.0 mg/kg/injection, schedule: Q04DX003 (ip), vehicle: saline with Tween-80 107 % of control

CC(=O)OC(CNCC(=O)O)C(Cl)(Cl)Cl (centres undefined)
inactive: [6] 102 % of control | [7] 98 % of control | [13] 98 % of control

O=C(O)C1(Br)CCC1
inactive: endpoint: mean survival time, dose: 12.5 mg/kg/injection, schedule: Q01DX005 (ip), vehicle: saline with Tween-80 89 % of control | endpoint: mean survival time, dose: 12.5 mg/kg/injection, schedule: Q01DX009 (ip), vehicle: saline 100 % of control | endpoint: mean survival time, dose: 25.0 mg/kg/injection, schedule: Q01DX005 (ip), vehicle: saline with Tween-80 101 % of control | endpoint: mean survival time, dose: 25.0 mg/kg/injection, schedule: Q01DX009 (ip), vehicle: saline 89 % of control | endpoint: mean survival time, dose: 50.0 mg/kg/injection, schedule: Q01DX005 (ip), vehicle: saline with Tween-80 108 % of control | [8] 93 % of control | endpoint: mean survival time, dose: 50.0 mg/kg/injection, schedule: Q04DX002 (ip), vehicle: saline with Tween-80 97 % of control | endpoint: mean survival time, dose: 100.0 mg/kg/injection, schedule: Q01DX005 (ip), vehicle: saline with Tween-80 97 % of control | [9] 89 % of control | endpoint: mean survival time, dose: 100.0 mg/kg/injection, schedule: Q04DX002 (ip), vehicle: saline with Tween-80 94 % of control

Nc1ncnc2cc3c(cc12)ncn3C1OC(CO)C(O)C1O (centres undefined)
inactive: endpoint: mean survival time, dose: 12.5 mg/kg/injection, schedule: Q01DX005 (ip), vehicle: water 92 % of control | endpoint: mean survival time, dose: 25.0 mg/kg/injection, schedule: Q01DX005 (ip), vehicle: water 104 % of control | endpoint: mean survival time, dose: 50.0 mg/kg/injection, schedule: Q01DX005 (ip), vehicle: water 104 % of control | endpoint: mean survival time, dose: 100.0 mg/kg/injection, schedule: Q01DX005 (ip), vehicle: water 112 % of control | endpoint: mean survival time, dose: 200.0 mg/kg/injection, schedule: Q01DX005 (ip), vehicle: water 110 % of control

NC(N)=N/N=C/c1cc(Br)ccc1O
inactive: endpoint: mean survival time, dose: 37.5 mg/kg/injection, schedule: Q01DX009 (ip), vehicle: saline 105 % of control | endpoint: mean survival time, dose: 37.5 mg/kg/injection, schedule: Q04DX003 (ip), vehicle: saline 110 % of control | endpoint: mean survival time, dose: 75.0 mg/kg/injection, schedule: Q04DX003 (ip), vehicle: saline 114 % of control | endpoint: mean survival time, dose: 150.0 mg/kg/injection, schedule: Q04DX003 (ip), vehicle: saline 108 % of control

COc1ccc2c(c1)C1(C)CCC(=O)C(C)C1CC2 (centres undefined)
inactive: [14] 94 % of control | [15] 96 % of control | [16] 96 % of control

Cc1cc2c(C(C)C)c(O)c(O)cc2c(O)c1-c1c(C)cc2c(C(C)C)c(O)c(O)cc2c1O
inactive: endpoint: mean survival time, dose: 12.5 mg/kg/injection, schedule: Q01DX001 (ip), vehicle: saline with Tween-80 105 % of control | [17] 100 % of control | [10] 102 % of control | [18] 94 % of control | [11] 103 % of control | [4] 90 % of control
